ChEMBL document CHEMBL3885881, “DrugMatrix”

Organism: Rattus norvegicus
Experiment: DrugMatrix - Regimen: Daily Repeat
Type: toxicity, organism-based, Sprague-Dawley
Design: regimen Daily Repeat, gender Male, age 6-8 weeks
Settings: in vivo, sc, route subcutaneous, […]; for ABSOLUTE BASOPHIL / ABSOLUTE EOSINOPHIL / ABSOLUTE LYMPHOCYTE / ABSOLUTE MONOCYTE / ABSOLUTE SEGMENTED NEUTROPHIL / BASOPHIL / EOSINOPHIL / ERYTHROCYTE COUNT / HEMATOCRIT / HEMOGLOBIN / LEUKOCYTE COUNT / LYMPHOCYTE / MEAN CORPUSCULAR HEMOGLOBIN / MEAN CORPUSCULAR HEMOGLOBIN CONCENTRATION / MEAN CORPUSCULAR VOLUME / MONOCYTE / NEUTROPHIL / NUCLEATED RED BLOOD CELLS / PLATELET COUNT: tissue Blood; for ALANINE AMINOTRANSFERASE / ALBUMIN / ALKALINE PHOSPHATASE / ASPARTATE AMINOTRANSFERASE / BLOOD UREA NITROGEN / CARBON DIOXIDE / CHLORIDE / CHOLESTEROL / CREATINE PHOSPHOKINASE / CREATININE / GLUCOSE / LACTATE DEHYDROGENASE / LIPASE / PHOSPHORUS / POTASSIUM / SODIUM / TOTAL BILIRUBIN / TOTAL PROTEIN / URIC ACID: tissue Plasma
[1] = 0.8 mg/kg, 120 h, dose level Low, time 5 day
[2] = 8 mg/kg, 72 h, dose level High, time 3 day
[3] = 8 mg/kg, 120 h, dose level High, time 5 day

Oc1c(Cl)cc(Cl)c(Cl)c1Cc1c(O)c(Cl)cc(Cl)c1Cl [HEXACHLOROPHENE]
ABSOLUTE BASOPHIL [1]: 0 CELLS/uL
ABSOLUTE EOSINOPHIL [1]: 0 CELLS/uL
ABSOLUTE LYMPHOCYTE [1]: 15077 CELLS/uL
ABSOLUTE MONOCYTE [1]: 281 CELLS/uL
ABSOLUTE SEGMENTED NEUTROPHIL [1]: 1342 CELLS/uL
BASOPHIL [1]: 0%
EOSINOPHIL [1]: 0%
ERYTHROCYTE COUNT [1]: 5.52 x10E6/uL
HEMATOCRIT [1]: 35.07%
HEMOGLOBIN [1]: 13.27 G/DL
LEUKOCYTE COUNT [1]: 16.7 x10E3/uL
LYMPHOCYTE [1]: 90.33%
MEAN CORPUSCULAR HEMOGLOBIN [1]: 24.07 pg
MEAN CORPUSCULAR HEMOGLOBIN CONCENTRATION [1]: 37.9 G/DL
MEAN CORPUSCULAR VOLUME [1]: 63.53 fL
MONOCYTE [1]: 1.67%
NEUTROPHIL [1]: 8%
NUCLEATED RED BLOOD CELLS [1]: 0 /100WBC
PLATELET COUNT [1]: 1358.33 x10E3/uL
ALANINE AMINOTRANSFERASE [1]: 45.33 u/L
ALBUMIN [1]: 4.07 G/DL
ALKALINE PHOSPHATASE [1]: 296.33 u/L
ASPARTATE AMINOTRANSFERASE [1]: 78 u/L
BLOOD UREA NITROGEN [1]: 15.67 mg/dL
CARBON DIOXIDE [1]: 26.67 mmol/L
CHLORIDE [1]: 104.67 MEQ/L
CHOLESTEROL [1]: 74.67 mg/dL
CREATINE PHOSPHOKINASE [1]: 237 u/L
CREATININE [1]: 0.35 mg/dL
GLUCOSE [1]: 154.33 mg/dL
LACTATE DEHYDROGENASE [1]: 156 u/L
LIPASE [1]: 11 u/L
PHOSPHORUS [1]: 11.83 mg/dL
POTASSIUM [1]: 6.6 MEQ/L
SODIUM [1]: 144.67 MEQ/L
TOTAL BILIRUBIN [1]: 0.13 mg/dL
TOTAL PROTEIN [1]: 5.8 G/DL
URIC ACID [1]: 1.47 mg/dL
ABSOLUTE BASOPHIL [2]: 0 CELLS/uL
ABSOLUTE EOSINOPHIL [2]: 49.67 CELLS/uL
ABSOLUTE LYMPHOCYTE [2]: 12140.67 CELLS/uL
ABSOLUTE MONOCYTE [2]: 337 CELLS/uL
ABSOLUTE SEGMENTED NEUTROPHIL [2]: 1839.33 CELLS/uL
BASOPHIL [2]: 0%
EOSINOPHIL [2]: 0.33%
ERYTHROCYTE COUNT [2]: 5.89 x10E6/uL
HEMATOCRIT [2]: 36.63%
HEMOGLOBIN [2]: 13.43 G/DL
LEUKOCYTE COUNT [2]: 14.37 x10E3/uL
LYMPHOCYTE [2]: 84.67%
MEAN CORPUSCULAR HEMOGLOBIN [2]: 22.8 pg
MEAN CORPUSCULAR HEMOGLOBIN CONCENTRATION [2]: 36.7 G/DL
MEAN CORPUSCULAR VOLUME [2]: 62.27 fL
MONOCYTE [2]: 2.33%
NEUTROPHIL [2]: 12.67%
NUCLEATED RED BLOOD CELLS [2]: 0 /100WBC
PLATELET COUNT [2]: 1253 x10E3/uL
ALANINE AMINOTRANSFERASE [2]: 52 u/L
ALBUMIN [2]: 4.1 G/DL
ALKALINE PHOSPHATASE [2]: 314.33 u/L
ASPARTATE AMINOTRANSFERASE [2]: 87.67 u/L
BLOOD UREA NITROGEN [2]: 16.67 mg/dL
CARBON DIOXIDE [2]: 22.33 mmol/L
CHLORIDE [2]: 105.33 MEQ/L
CHOLESTEROL [2]: 87.33 mg/dL
CREATINE PHOSPHOKINASE [2]: 258.67 u/L
CREATININE [2]: 0.21 mg/dL
GLUCOSE [2]: 187.33 mg/dL
LACTATE DEHYDROGENASE [2]: 132 u/L
LIPASE [2]: 9.67 u/L
PHOSPHORUS [2]: 11.9 mg/dL
POTASSIUM [2]: 5.67 MEQ/L
SODIUM [2]: 146.53 MEQ/L
TOTAL BILIRUBIN [2]: 0.17 mg/dL
TOTAL PROTEIN [2]: 5.93 G/DL
URIC ACID [2]: 2.47 mg/dL
ABSOLUTE BASOPHIL [3]: 0 CELLS/uL
ABSOLUTE EOSINOPHIL [3]: 154 CELLS/uL
ABSOLUTE LYMPHOCYTE [3]: 13307.33 CELLS/uL
ABSOLUTE MONOCYTE [3]: 238 CELLS/uL
ABSOLUTE SEGMENTED NEUTROPHIL [3]: 1100.67 CELLS/uL
BASOPHIL [3]: 0%
EOSINOPHIL [3]: 1%
ERYTHROCYTE COUNT [3]: 5.91 x10E6/uL
HEMATOCRIT [3]: 35.87%
HEMOGLOBIN [3]: 13.17 G/DL
LEUKOCYTE COUNT [3]: 14.8 x10E3/uL
LYMPHOCYTE [3]: 90%
MEAN CORPUSCULAR HEMOGLOBIN [3]: 22.3 pg
MEAN CORPUSCULAR HEMOGLOBIN CONCENTRATION [3]: 36.7 G/DL
MEAN CORPUSCULAR VOLUME [3]: 60.8 fL
MONOCYTE [3]: 1.67%
NEUTROPHIL [3]: 7.33%
NUCLEATED RED BLOOD CELLS [3]: 0 /100WBC
PLATELET COUNT [3]: 1301.67 x10E3/uL
ALANINE AMINOTRANSFERASE [3]: 46 u/L
ALBUMIN [3]: 4 G/DL
ALKALINE PHOSPHATASE [3]: 378.33 u/L
ASPARTATE AMINOTRANSFERASE [3]: 85 u/L
BLOOD UREA NITROGEN [3]: 16.33 mg/dL
CARBON DIOXIDE [3]: 27.33 mmol/L
CHLORIDE [3]: 104.67 MEQ/L
CHOLESTEROL [3]: 70.33 mg/dL
CREATINE PHOSPHOKINASE [3]: 346.67 u/L
CREATININE [3]: 0.2 mg/dL
GLUCOSE [3]: 174 mg/dL
LACTATE DEHYDROGENASE [3]: 129.67 u/L
LIPASE [3]: 9.33 u/L
PHOSPHORUS [3]: 11.03 mg/dL
POTASSIUM [3]: 5.65 MEQ/L
SODIUM [3]: 146 MEQ/L
TOTAL BILIRUBIN [3]: 0.2 mg/dL
TOTAL PROTEIN [3]: 5.83 G/DL
URIC ACID [3]: 1.63 mg/dL
